Measurements published in US20220202912A1, “Polypeptides in Preparation of Drugs for Treatment or Prevention of Rheumatoid Arthritis” (priority 2011, published 2022).
Like-named read-outs stand apart in the source and are kept apart here. Where no end group is shown, it is not given here.

Tests used:
TNF-α = test: in vivo imaging of TNF-α expression, CIA transgenic TNF-luc mice; parameters: species or system BALB/c transgenic TNF-luc mice; details: day 36; Adalimumab 8 mg/kg, mPEG-SC20k-HM-3 20 mg/kg
Protocol: […] After the mice are lightly anesthetized with ether, the mice are fixed within 5-20 min and put into an in vivo imager, the imager is covered with an instrument lid, on-fluro and om-photo names in the desktop imaging interface of the computer are clicked, and the expose button is clicked to complete the fluorescence and white light photos of mice in vivo imaging. The specific imaging principle, operation steps, image processing and output are the same as those in the previous embodiment.

AIA rat models = test: adjuvant-induced arthritis (AIA) rat models; type: in vivo, SD rats; details: for clinical scoring / swelling of left paw / swelling of right paw: 5 times
[1] = system: AIA transgenic TNF-luc mice; test: adjuvant-induced arthritis in transgenic TNF-luc mice (swelling, scores, weight, HE staining); type: in vivo, BALB/c transgenic TNF-luc mice; parameters: right ankle swelling / left ankle swelling / left toe swelling / right toe swelling / changes of weight (added value): unit not given here; details: Adalimumab 8 mg/kg
Protocol: 8 animals are randomly divided into 4 groups (n=2), a normal group, a model group, a positive drug group and a test group. On day 0, the initial left and right ankle thicknesses, initial left and right foot palm thicknesses and initial left and right toe thicknesses of each group of mice are measured. On day 0, 50 μL/mouse complete Freund's adjuvant is injected into the bottom of the left toe of each group of mice, and the treatment is started after secondary inflammation appears in the right foot of each group of mice on day 17. On day 17, the normal group and the model group are hypodermically injected with 0.9% normal saline (0.2 mL/20 g of body weight), once every 2 days, 7 times in total. The positive drug Adalimumab group is hypodermically injected with Adalimumab (8 mg/kg of body weight), once every 15 days, once in total. The test group is hypodermically injected with mPEG-SC20k-HM-3 (20 mg/kg of body weight), once every 2 days, 7 times in total. The treatment lasts for 15 days. Then, medication is stopped for observation for one week, and the mice are killed one week later.
On day 0, the initial ankle widths, foot palm widths and toe thicknesses of left and right feet are measured with a vernier caliper as initial values. Every 2 days, the left and right ankle widths, foot palm widths and toe thicknesses of each group of mice are measured separately with the vernier caliper, and compared with the initial values to calculate the changes in the swelling degree.
The joints of the mouse paw are observed with naked eyes, and the joints are scored every 2 days from day 17. Scoring is performed in terms of level 0 to level 4, 5 levels in total.
After the secondary inflammation appears, systemic scoring is performed every 2 days.
Changes of expression of TNF-α and IL-6 are analyzed by HE staining and immunohistochemistry in the ankle joint, spleen and thymus of the mice. Observation and photographing are performed under the FOVs of ×200 and ×400 times respectively, 5 FOVs are taken randomly for each picture, and data statistics is performed.

cotton ball granuloma = type: in vivo, SD rats; details: day 8
Protocol: The rats are randomly divided into a model control group, a positive control (dexamethasone) group, and mPEG-SC20k-HM-3 groups using subcutaneous injection at a high dose, a medium dose and a low dose, a total of 5 groups, and the drugs are administered to each group of animals by subcutaneous injection, for 7 days in succession.
Rats in each group are anesthetized with pentobarbital sodium (40 mg/kg) by intraperitoneal injection, and the abdominal coat is cut off. The skin in the middle of the lower abdomen is cut open under aseptic condition, and the incision is about 1 cm long. The subcutaneous tissue is expanded by vascular forceps, and 30 mg of sterile dry cotton balls (weighed accurately by an electronic balance before the test, and undergoing conventional autoclaving and drying for later use) are implanted hypodermically into the groin on one side. The incision is sutured, and an appropriate amount of amoxicillin is sprinkled on the incision to prevent infection.
The drug is administered on the same day after surgery, and is administered for 7 days in succession. On day 8, the rats are killed by cervical dislocation, the cotton balls are removed surgically, the fat tissue is removed, and the […] at 60° C. The mass of granuloma is expressed in mg (granulomatoma)/100 g (body weight). The granuloma mass difference between each administration group and the model control group is compared, and the inhibition rate is calculated. Data statistical analysis is performed on significant differences between the groups.
Inhibition rate (%)=(average granuloma mass of model control group−average granuloma mass of administration group)/average granuloma mass of model control group×100%.

[2] = high dose 40 mg/kg once the other day
[3] = low dose 10 mg/kg once the other day
[4] = medium dose 20 mg/kg once the other day
[5] = 0 d, before treatment (starts day 17), mPEG-SC20k-HM-3 20 mg/kg groups
[6] = 1 d, before treatment (starts day 17), mPEG-SC20k-HM-3 20 mg/kg groups
[7] = 3 d, before treatment (starts day 17), mPEG-SC20k-HM-3 20 mg/kg groups
[8] = 6 d, before treatment (starts day 17), mPEG-SC20k-HM-3 20 mg/kg groups
[9] = 9 d, before treatment (starts day 17), mPEG-SC20k-HM-3 20 mg/kg groups
[10] = 12 d, before treatment (starts day 17), mPEG-SC20k-HM-3 20 mg/kg groups
[11] = 16 d, before treatment (starts day 17), mPEG-SC20k-HM-3 20 mg/kg groups
[12] = 17 d (treatment starts), mPEG-SC20k-HM-3 20 mg/kg sc
[13] = 19 d, mPEG-SC20k-HM-3 20 mg/kg sc
[14] = 22 d, mPEG-SC20k-HM-3 20 mg/kg sc
[15] = 25 d, mPEG-SC20k-HM-3 20 mg/kg sc
[16] = 28 d, mPEG-SC20k-HM-3 20 mg/kg sc
[17] = 31 d, mPEG-SC20k-HM-3 20 mg/kg sc

## mPEG-SC20k-Ile-Val-Arg-Arg-Ala-Asp-Arg-Ala-Ala-Val-Pro-Gly-Gly-Gly-Gly-Arg-Gly-Asp ({mPEG‑SC 20k}-IVRRADRAAVPGGGGRGD) [polypeptide III, No. 3]
TNF-α
  in vivo fluorescence densities: 19.02±9.69 10^5
AIA rat models; [2]
  clinical scoring: 5.29 ± 3.90
  swelling of left paw: 4.40 ± 0.91 mm
  swelling of right paw: 1.05 ± 1.31 mm
AIA rat models; [3]
  clinical scoring: 5.43 ± 2.15
  swelling of left paw: 4.40 ± 0.91 mm
  swelling of right paw: 0.76 ± 1.21 mm
AIA rat models; [4]
  clinical scoring: 5.71 ± 2.36
  swelling of left paw: 4.48 ± 1.72 mm
  swelling of right paw: 1.28 ± 1.27 mm
AIA rat models; rat, in vivo
  therapeutic effect on adjuvant-induced arthritis in rats (conclusion): CONCLUSION: polypeptide III has therapeutic effect on adjuvant-induced arthritis, and its effect is higher than that of polypeptide. I.
[1]; [5]
  changes of weight (added value): 0.00 ± 0.00
  left ankle swelling: 0.000 ± 0.000
  left foot (palm) swelling: 0.000 ± 0.000
  left toe swelling: 0.000 ± 0.000
[1]; [6]
  left ankle swelling: 0.188 ± 0.018
  left foot (palm) swelling: 0.163 ± 0.052
  left toe swelling: 0.255 ± 0.027
[1]; [7]
  changes of weight (added value): 0.27 ± 0.06
  left ankle swelling: 0.204 ± 0.074
  left foot (palm) swelling: 0.174 ± 0.088
  left toe swelling: 0.225 ± 0.106
[1]; [8]
  changes of weight (added value): 0.28 ± 0.25
  left ankle swelling: 0.265 ± 0.031
  left foot (palm) swelling: 0.207 ± 0.055
  left toe swelling: 0.261 ± 0.126
[1]; [9]
  changes of weight (added value): 0.40 ± 0.39
  left ankle swelling: 0.251 ± 0.029
  left foot (palm) swelling: 0.224 ± 0.062
  left toe swelling: 0.260 ± 0.156
[1]; [10]
  changes of weight (added value): 0.42 ± 0.66
  left ankle swelling: 0.265 ± 0.028
  left foot (palm) swelling: 0.228 ± 0.054
  left toe swelling: 0.303 ± 0.103
[1]; 15 d, before treatment (starts day 17), mPEG-SC20k-HM-3 20 mg/kg groups
  changes of weight (added value): 0.67 ± 1.06
[1]; [11]
  left ankle swelling: 0.274 ± 0.020
  left foot (palm) swelling: 0.221 ± 0.041
  left toe swelling: 0.294 ± 0.092
  right ankle swelling: 0.024 ± 0.011
  right foot palm swelling: 0.007 ± 0.007
  right toe swelling: 0.015 ± 0.021
[1]; [12]
  joint index score: 7.50 ± 0.70
  whole body (systemic) score: 5.50 ± 0.70
[1]; [13]
  changes of weight (added value): 0.97 ± 1.09
  left ankle swelling: 0.297 ± 0.005
  right ankle swelling: 0.019 ± 0.009
  right foot palm swelling: 0.010 ± 0.011
[1]; [14]
  changes of weight (added value): 0.82 ± 0.57
  left ankle swelling: 0.252 ± 0.006
  right foot palm swelling: 0.003 ± 0.016
[1]; [15]
  changes of weight (added value): 0.61 ± 0.72
  left ankle swelling: 0.219 ± 0.013
  left toe swelling: 0.292 ± 0.107
  right toe swelling: 0.015 ± 0.027
[1]; [16]
  changes of weight (added value): 1.13 ± 0.18
  right ankle swelling: 0.021±0.013
[1]; [17]
  changes of weight (added value): 1.15 ± 0.40
  left toe swelling: 0.270 ± 0.127
[1]; mPEG-SC20k-HM-3 20 mg/kg
  HE staining of ankle joints: pathological symptoms vs model group: relieved to some extent
Cotton ball granuloma; 5 mg/kg sc once two days (G5)
  Inhibition rate of cotton ball granuloma: 35.67%
  cotton ball granuloma: 0.19 ± 0.03 mg(cotton ball granuloma)/100 g(weight)
Cotton ball granuloma; 10 mg/kg sc once two days (G4)
  Inhibition rate of cotton ball granuloma: 39.33%
  cotton ball granuloma: 0.18 ± 0.02 mg(cotton ball granuloma)/100 g(weight)
Cotton ball granuloma; 20 mg/kg sc once two days (G3)
  Inhibition rate of cotton ball granuloma: 38.23%
  cotton ball granuloma: 0.18 ± 0.03 mg(cotton ball granuloma)/100 g(weight)
